Source: article PMC9719540, “Synthesis of an amphiphilic vancomycin aglycone derivative inspired by polymyxins: overcoming glycopeptide resistance in Gram-positive and Gram-negative bacteria in synergy with teicoplanin in vitro” (Scientific Reports, 2022)
Several values for one entry are separate records, joined by “and”; a condition that tells them apart may be missing. Equal entries are not always repeated. Structures can show the parent of a compound that is named as a salt. Where two headings read alike, the source gives them in different places.

Legend:
Caco-2 cells [1] = assay: MTT cytotoxicity of combinations, checkerboard configuration; format: cell-based, human; settings: teicoplanin : compound 14 32:2 µg/mL
Procedure: (§1) Human Caco-2 intestinal epithelial cells were obtained from European Collection of Cell Cultures (ECACC, UK) and grown routinely in Dulbecco’s Minimum Essential Medium (DMEM), supplemented with 10% fetal bovine serum (FBS), 1% non-essential amino acid and 1% penicillin–streptomycin solution.
In cell viability experiments, 1 × 10^4 hCMEC/D3 or Caco-2 cells/well were seeded on 96-weel plates. After 24 h of incubation, cells were treated with test solutions in different concentrations. The stock solution of the test molecule was dissolved in DMSO and further diluted with cell culture medium to prepare test solutions. […] The control group received culture medium. Cells were incubated with the test solutions for 72 h at 37 °C in an atmosphere of 5% CO2, and test solutions were replaced with 0.05 mg/ml 3-(4,5-dimethylthiazol-2-yl)-2,5-diphenyltetrazolium bromide (MTT) solutions prepared in PBS. […] The absorbance was measured at 570 nm against a 690 nm reference wavelength with a Thermo Fisher Multiskan Go microplate reader (Thermo Fisher, Waltham, MA, USA). Cell viability was expressed as the percentage of the untreated control and IC50 values were calculated by GraphPad Prism 7 software (GraphPad Software Inc., San Diego, CA, USA). […]

Caco-2 cells [2] = assay: MTT cytotoxicity (cell viability); format: cell-based, human
Procedure: as §1
(§2) In cell viability experiments, 1 × 10^4 hCMEC/D3 or Caco-2 cells/well were seeded on 96-weel plates. After 24 h of incubation, cells were treated with test solutions in different concentrations. The stock solution of the test molecule was dissolved in DMSO and further diluted with cell culture medium to prepare test solutions. […] The control group received culture medium. Cells were incubated with the test solutions for 72 h at 37 °C in an atmosphere of 5% CO2, and test solutions were replaced with 0.05 mg/ml 3-(4,5-dimethylthiazol-2-yl)-2,5-diphenyltetrazolium bromide (MTT) solutions prepared in PBS. Cells were incubated with MTT solutions for 4 h at 37 °C and the formed dark blue formazan crystals were dissolved in acidic isopropanol (isopropanol: 1.0 N hydrochloric acid = 25:1). The absorbance was measured at 570 nm against a 690 nm reference wavelength with a Thermo Fisher Multiskan Go microplate reader (Thermo Fisher, Waltham, MA, USA). Cell viability was expressed as the percentage of the untreated control and IC50 values were calculated by GraphPad Prism 7 software (GraphPad Software Inc., San Diego, CA, USA).

hCMEC/D3 cells [3] = assay: MTT cytotoxicity of combinations, checkerboard configuration; format: cell-based, human
Procedure: (§3) The human immortalized hCMEC/D3 cells (Merck KGaA, Darmstadt, Germany, Cat. # SCC066) were cultured in EndoGRO-MV Complete Culture Media (supplemented with the components of the kit and fibroblast growth factor 2 (FGF-2) at 1 ng/mL final concentration).
as §2, with “CA, USA). […]” for “CA, USA).”

[4] = system: Pseudomonas aeruginosa ATCC 27853; assay: Checkerboard assay, combined susceptibility (FIC index); format: cell-based; settings: for MIC of antibiotic in comb.: antibiotic combined with 14; for MIC of antibiotic alone: checkerboard
Procedure: (§4) To determine the activity profile of teicoplanin and vancomycin in combination with compound 14, combined susceptibility tests were perfomed against […] Gram negative strains including Escherichia coli, Pseudomonas aeruginosa, Acinetobacter baumannii and Klebsiella pneumoniae bacteria. The combined effects of compound 14 and the glycopeptide antibiotics were determined by conventional checkerboard assays (images of the chequerboard assay for synergistic combinations are shown in Supplementary Information S1).
(§5) The routine antibacterial evaluations were carried out as it was described in our previous publication. Antimicrobial synergy was determined by evaluating the fractional inhibitory concentration (FIC) index and was characterized by a conventional checkerboard assay. Bacteria grown to mid-logarithmic phase in MHB were pre-incubated with serially diluted concentrations of teicoplanin or vancomycin and compound 14. The sum of the FICs (ΣFIC) was calculated with the equation ΣFIC = FICA + FICB = (CA/MICA) + (CB/MICB), where MICA and MICB are the MICs of antimicrobial A and B alone, respectively, and CA and CB are the inhibitory concentrations of the drugs when combined, respectively. Synergy was defined as a ΣFICs ≤ 0.5 and additive activity was defined as a ΣFICs > 0.5 ≤ 1.0.

[5] = system: Klebsiella pneumoniae ST258 clone K 160/09; assay: as above; format: cell-based; settings: for MIC of antibiotic in comb.: antibiotic combined with 14
Procedure: as §4, §5

[6] = system: Escherichia coli ATCC 25218; assay: as above; format: cell-based; settings: for MIC of antibiotic in comb.: antibiotic combined with 14; for MIC of antibiotic alone: checkerboard
Procedure: as §4, §5

[7] = system: Acinetobacter baumannii ATCC BAA1605; assay: as above; format: cell-based; settings: for MIC of antibiotic in comb.: antibiotic combined with 14; for MIC of antibiotic alone: checkerboard
Procedure: as §4, §5

[8] = system: Staphylococcus aureus MRSA ATCC 33591; assay: Antibacterial activity (MIC); format: cell-based
Procedure: as §5

[9] = system: Staphylococcus epidermidis mecA; assay: Antibacterial activity (MIC); format: cell-based
Procedure: as §5

[10] = system: Pseudomonas aeruginosa ATCC 27853; assay: Antibacterial activity (MIC); format: cell-based; settings: ATCC27853
Procedure: as §5

[11] = system: Staphylococcus epidermidis ATCC 35984 biofilm; assay: Antibacterial activity (MIC); format: cell-based
Procedure: as §5

[12] = system: Klebsiella pneumoniae ST258 clone K 160/09; assay: Antibacterial activity (MIC); format: cell-based
Procedure: as §5

[13] = system: Escherichia coli ATCC 25218; assay: Antibacterial activity (MIC); format: cell-based; settings: ATCC25218
Procedure: as §5

[14] = system: Enterococcus faecalis 15376 VanA; assay: Antibacterial activity (MIC); format: cell-based
Procedure: as §5

[15] = system: Enterococcus faecalis ATCC 51299 VanB; assay: Antibacterial activity (MIC); format: cell-based
Procedure: as §5

[16] = system: Enterococcus faecalis ATCC 29212; assay: Antibacterial activity (MIC); format: cell-based; settings: for MIC: ATCC29212
Procedure: as §5

[17] = system: Staphylococcus aureus MSSA ATCC 29213; assay: Antibacterial activity (MIC); format: cell-based
Procedure: as §5

[18] = system: Bacillus subtilis ATCC 6633; assay: Antibacterial activity (MIC); format: cell-based; settings: ATCC6633
Procedure: as §5

[19] = system: Acinetobacter baumannii ATCC BAA1605; assay: Antibacterial activity (MIC); format: cell-based
Procedure: as §5

hCMEC/D3 cells [20] = assay: MTT cytotoxicity (cell viability); format: cell-based, human
Procedure: as §3, §2

[21] = MTT cytotoxicity (cell viability); format: cell-based, human; settings: human; Caco-2 cells, MTT, 72 h
Procedure: as §1, §2

[22] = between 0.082 and 200 µM (0.155–375.94 µg/mL)

CCCCCCCCCC(=O)N[C@H](CC(C)C)C(=O)N[C@H]1C(=O)N[C@@H](CC(N)=O)C(=O)N[C@H]2C(=O)N[C@H]3C(=O)N[C@H](C(=O)N[C@H](C(=O)NCCN)c4cc(OCCN)cc(OCCN)c4-c4cc3ccc4OCCN)[C@H](O)c3ccc(c(Cl)c3)Oc3cc2cc(c3OCCN)Oc2ccc(cc2Cl)[C@H]1O [Compound 14, Tetraaminoethyl N-decanoyl norvancomycin aglycone aminoethyl amide trifluoroacetate salt]
toxicity of combination (Caco-2 cells [1]): not toxic
IC50 (Caco-2 cells [2]; MTT, 72 h): > 100 µM
IC50 (cytotoxicity) (Caco-2 cells [2]; MTT, 72 h): > 206.86 µg/mL
cell viability (hCMEC/D3 cells [3]; teicoplanin : compound 14 2:32 µg/mL, percentage of untreated control): 81.4%
toxicity of combination (hCMEC/D3 cells [3]; teicoplanin : compound 14 32:2 µg/mL): not toxic
FIC index ([4]; 14 combined with teicoplanin): 0.375
FIC index ([4]; 14 combined with vancomycin): 0.5625
MIC ([4]; ATCC27853, checkerboard, read-out: MIC of 14 alone): 256 µg/mL
MIC of 14 in comb. ([4]; combined with teicoplanin): 32 µg/mL
MIC of 14 in comb. ([4]; combined with vancomycin): 64 µg/mL
Combined effect ([5]; 14 combined with teicoplanin): neither synergy nor additive activity and None
Combined effect ([5]; 14 combined with vancomycin): neither synergy nor additive activity and None
MIC ([5]; checkerboard, read-out: MIC of 14 alone): 256 µg/mL
MIC of 14 in comb. ([5]; combined with teicoplanin): 256 µg/mL
MIC of 14 in comb. ([5]; combined with vancomycin): 256 µg/mL
FIC index ([6]; 14 combined with teicoplanin): 0.2578
FIC index ([6]; 14 combined with vancomycin): 0.5078
MIC ([6]; ATCC25218, checkerboard, read-out: MIC of 14 alone): 256 µg/mL
MIC of 14 in comb. ([6]; combined with teicoplanin): 32 µg/mL
MIC of 14 in comb. ([6]; combined with vancomycin): 64 µg/mL
FIC index ([7]; 14 combined with teicoplanin): 0.2656
FIC index ([7]; 14 combined with vancomycin): 0.75
MIC ([7]; ATCCBAA1605, checkerboard, read-out: MIC of 14 alone): 128 µg/mL
MIC of 14 in comb. ([7]; combined with teicoplanin): 2 µg/mL
MIC of 14 in comb. ([7]; combined with vancomycin): 32 µg/mL
MIC ([8]; Staphylococcus aureus MRSA ATCC 33591, read-out: MIC): 8 µg/mL
MIC ([9]; Staphylococcus epidermidis mecA, read-out: MIC): 2 µg/mL
MIC ([10]; Pseudomonas aeruginosa ATCC 27853, read-out: MIC): 128 µg/mL
MIC ([11]; ATCC35984, Staphylococcus epidermidis ATCC 35984 biofilm, read-out: MIC): 4 µg/mL
MIC ([12]; Klebsiella pneumoniae ST258 clone K 160/09, read-out: MIC): 256 µg/mL
MIC ([13]; Escherichia coli ATCC 25218, read-out: MIC): 128 µg/mL
MIC ([14]; Enterococcus faecalis 15376 VanA, read-out: MIC): 8 µg/mL
times more potent than vancomycin (MIC ratio) ([14]; resistant VanA E. faecalis): 32 times
MIC ([15]; ATCC51299, Enterococcus faecalis ATCC 51299 VanB, read-out: MIC): 32 µg/mL
MIC ([16]; Enterococcus faecalis ATCC 29212, read-out: MIC): 16 µg/mL
times less active than vancomycin (MIC ratio) ([16]; vancomycin sensitive E. faecalis ATCC 29212): 16 times
MIC ([17]; Staphylococcus aureus MSSA ATCC 29213, read-out: MIC): 8 µg/mL
MIC ([18]; Bacillus subtilis ATCC 6633, read-out: MIC): 4 µg/mL
MIC ([19]; ATCCBAA1605, Acinetobacter baumannii ATCC BAA1605, read-out: MIC): 128 µg/mL
IC50 (hCMEC/D3 cells [20]; MTT, 72 h): 56.2 ± 7.74 µM
IC50 (cytotoxicity) (hCMEC/D3 cells [20]; MTT, 72 h): 116.29 ± 16 µg/mL

CN[C@H](CC(C)C)C(=O)N[C@H]1C(=O)N[C@@H](CC(N)=O)C(=O)N[C@H]2C(=O)N[C@H]3C(=O)N[C@H](C(=O)N[C@H](C(=O)O)c4cc(O)cc(O)c4-c4cc3ccc4O)[C@H](O)c3ccc(c(Cl)c3)Oc3cc2cc(c3O[C@@H]2O[C@H](CO)[C@@H](O)[C@H](O)[C@H]2O[C@H]2C[C@](C)(N)[C@H](O)[C@H](C)O2)Oc2ccc(cc2Cl)[C@H]1O [Vancomycin]
IC50 at 72 h [21]: 54.2 µM and 78.7 µg/mL
MIC of antibiotic in comb. [4]: 16 µg/mL
MIC of antibiotic alone [4]: 256 µg/mL
MIC of antibiotic in comb. [5]: 256 µg/mL
MIC of antibiotic alone ([5]; checkerboard): 256 µg/mL
MIC of antibiotic in comb. [6]: 2 µg/mL
MIC of antibiotic alone [6]: 256 µg/mL
MIC of antibiotic in comb. [7]: 64 µg/mL
MIC of antibiotic alone [7]: 128 µg/mL
MIC ([8]; Staphylococcus aureus): 0.5 µg/mL
MIC ([9]; Staphylococcus epidermidis): 4 µg/mL
MIC ([10]; Pseudomonas aeruginosa): 256 µg/mL
MIC ([11]; Staphylococcus epidermidis, ATCC35984): 2 µg/mL
MIC ([12]; Klebsiella pneumoniae): 256 µg/mL
MIC ([13]; Escherichia coli): 256 µg/mL
MIC ([14]; Enterococcus faecalis, 15376VANA): 256 µg/mL
MIC ([15]; Enterococcus faecalis, ATCC51299): 128 µg/mL
MIC ([16]; Enterococcus faecalis): 1 µg/mL
MIC ([17]; Staphylococcus aureus): 0.5 µg/mL
MIC ([18]; Bacillus subtilis): 0.5 µg/mL
MIC ([19]; Acinetobacter baumannii, ATCCBAA1605): 128 µg/mL

Teicoplanin
cytotoxic effect (Caco-2 cells [2]; [22]): did not show cytotoxic effect
MIC of antibiotic in comb. [4]: 32 µg/mL
MIC of antibiotic alone [4]: 256 µg/mL
MIC of antibiotic in comb. [5]: 256 µg/mL
MIC of antibiotic alone ([5]; checkerboard): 256 µg/mL
MIC of antibiotic in comb. [6]: 2 µg/mL
MIC of antibiotic alone [6]: 256 µg/mL
MIC of antibiotic in comb. [7]: 32 µg/mL
MIC of antibiotic alone [7]: 128 µg/mL
MIC ([8]; Staphylococcus aureus MRSA ATCC 33591): 0.5 µg/mL
MIC ([9]; Staphylococcus epidermidis mecA): 16 µg/mL
MIC ([10]; Pseudomonas aeruginosa): 256 µg/mL
MIC ([11]; Staphylococcus epidermidis ATCC 35984 biofilm): 4 µg/mL
MIC ([12]; Klebsiella pneumoniae ST258 clone K 160/09): 256 µg/mL
MIC ([13]; Escherichia coli): 256 µg/mL
MIC ([14]; Enterococcus faecalis 15376 VanA): 256 µg/mL
MIC ([15]; Enterococcus faecalis ATCC 51299 VanB): 0.5 µg/mL
MIC ([16]; Enterococcus faecalis): 1 µg/mL
MIC ([17]; Staphylococcus aureus MSSA ATCC 29213): 0.5 µg/mL
MIC ([18]; Bacillus subtilis): 0.5 µg/mL
MIC ([19]; Acinetobacter baumannii ATCC BAA1605): 128 µg/mL
cytotoxic effect (hCMEC/D3 cells [20]; [22]): did not show cytotoxic effect
